Data reported in patent US20150094354A1, “METHOD FOR TREATING CELL PROLIFERATIVE DISORDER BY INHIBITING C1GALT1 EXPRESSION” (National Taiwan University, priority 2013, published 2015).

Columns and labels:
Type in all cases: cell-based, human
[1] = tested on: O-glycans on glycoproteins; assay: Western blotting with biotinylated VVA of glycoproteins in hepatocellular carcinoma cells
Method: Vicia villosa agglutinin (VVA)- and peanut agglutinin (PNA) lectin-conjugated agarose beads, fluorescein isothiocyanate (FITC)-, and biotinylated VVA were purchased from Vector Laboratories. Recombinant EGF, HGF, IGF-I, and protein deglycosylation kits were purchased from Sigma. Protein deglycosylation is carried out using an Enzymatic Protein Deglycosylation Kit (Sigma). Briefly, cell lysates are treated with neuraminidase or PNGase F at 37° C. for 1 hour. For lectin blotting, […] of cell lysate is separated by an 8% SDS-PAGE, transferred to polyvinylidene difluoride membrane (Millipore), and blotted with biotinylated VVA (1:10,000). For lectin pull-down assay, cell lysates (0.3 mg) are incubated with or without deglycosylation enzymes and then applied to VVA- or PNA-conjugated agarose beads at 4° C. for 16 hours. The pulled down proteins are analyzed by Western blotting.
HA22T and PLC5 cells express high levels of C1GALT1, while Sk-Hep1 and HCC36 cells express low levels of C1GALT1, as shown in FIG. 6B. […] Compared with pcDNA3.1 empty plasmid (mock), overexpression of C1GALT1 in Sk-Hep1 and HCC36 cells transfected with C1GALT1/pcDNA3.1 plasmid (C1GALT1) is shown in FIG. 7B Immunofluorescence microscopy further confirmed the knockdown and overexpression of C1GALT1 in hepatocellular carcinoma cells and its subcellular localization in the Golgi apparatus (not shown). […] Proteins with evident changes in VVA binding are indicated by arrows. p140 changes in all tested cell lines are indicated by red arrows.

[2] = tested on: HA22T cells; assay: Cell-cycle analysis by propidium iodide flow cytometry; settings: HA22T (not shown)
Method: (§1) Cells (4×10^4) are seeded in each well of 6-well plates with DMEM containing 10% FBS. Viable cells are analyzed by Trypan blue exclusion assay at 0, 24, 48, and 72 hours. Cell proliferation is evaluated by immunostaining with anti-Ki67 antibody (1:1000; Vector Laboratories). For cell-cycle analysis, 1×10^6 cells are stained with propidium iodide (Sigma) for 30 minutes. The percentages of cells in G1, S, and G2M phases are analyzed by flow cytometry (Becton Dickinson).
(§2) FIGS. 10A-10B are schematic diagrams illustrating the effects of C1GALT1 on cell proliferation of hepatocellular carcinoma cells in vitro in accordance with an embodiment of the present invention. Cells were immunofluorescently stained for Ki67 and Ki67-positive cells were counted under a microscope. Results are presented as means±SD from three independent experiments. *, P<0.05; **, P<0.01.

[3] = tested on: PLC5 cells; assay: as above; settings: PLC5 (not shown)
Method: as §1, §2

[4] = tested on: HA22T cells; assay: Trypan blue exclusion cell viability assay; settings: up to 72 hours
Method: as §1
(§3) FIGS. 9A-9B are schematic diagrams illustrating the effects of C1GALT1 on the cell viability of hepatocellular carcinoma cells in vitro in accordance with an embodiment of the present invention. Cell viability of HA22T, PLC5, Sk-Hep1, and HCC36 cells was analyzed by Trypan blue exclusion assays at different time points for 72 hours. The results were standardized by the cell number at 0 hour. Data are represented as means±SD from three independent experiments. *, P<0.05; **, P<0.01.

[5] = tested on: PLC5 cells; assay: Trypan blue exclusion cell viability assay; settings: PLC5, up to 72 hours
Method: as §1, §3

“C1GALT1 si-1: siRNA oligonucleotide against C1GALT1, presumably SEQ ID NO: 1, UUAGUAUACGUUCAGGUAAGGUAGG (chemistry not given here)” was tested, and the “binding of VVA to glycoproteins” value ([1]; HA22T cells) was “enhanced”, the “binding of VVA to glycoproteins” value ([1]; PLC5 cells) was “enhanced” and the cell cycle [2] was “G1-phase arrest”. The cell cycle [3] was “G1-phase arrest”, the cell viability [4] was “significantly suppressed” and the cell viability [5] was “significantly suppressed”.
“C1GALT1 si-2: siRNA oligonucleotide against C1GALT1, presumably SEQ ID NO: 2, UUAUGUUGGCUAGAAUCUGCAUUGA (chemistry not given here)” was tested, and the “binding of VVA to glycoproteins” value ([1]; HA22T cells) was “enhanced”, the “binding of VVA to glycoproteins” value ([1]; PLC5 cells) was “enhanced” and the cell cycle [2] was “G1-phase arrest”. The cell cycle [3] was “G1-phase arrest”, the cell viability [4] was “significantly suppressed” and the cell viability [5] was “significantly suppressed”.
